This note sets out measurements from patent US12636277B2, “Methods for treating developmental dysplasis of hip” (WEST CHINA HOSPITAL OF SICHUAN UNIVERSITY, priority 2024, dated 2026).

Molecules are shown by their SMILES. Entries after “also recorded” stand apart in the source; their conditions may differ.

The subject of one assay is primary FSPC. The assay is described as follows: Edu assay of cell proliferation of primary FSPC after iMDK treatment. The class given is cell-based, human. Conditions: iMDK 100 nM, DDH group FSPC in vitro, compared with the DDH group. As for the experimental part: (§1) The samples from the DDH group were divided into two portions, one of which was treated with iMDK in vitro (DDH cell samples were added with iMDK, where the iMDK was 100 nM), and the specific dosages and treatments were not restricted by reference to commonly used inhibitor treatments or mixed cultures, etc. Cells in the control group and DDH group were cultured in the same way (the difference is no iMDK treatment). Post-treatment samples were examined for the expression levels of NR3C1 and MDK and cell proliferation of primary FSPC from different groups after treatment with the MDK inhibitor (IMDK), using Western blot and the Edu assay, etc., and the results were shown in FIGS. 3E-3F. As shown in FIGS. 3E-3F, compared with the DDH group, the expression levels of NR3C1 and MDK were reduced and the cell proliferation was reduced in the control group. Compared with the DDH group, the expression levels of NR3C1 and MDK were reduced in iMDK-treated FSPC, and cell proliferation capacity was reduced.

Assay [1] deals with NR3C1 and MDK expression in primary FSPC. The experiment in a line: Western blot of NR3C1 and MDK expression in primary FSPC after iMDK treatment. Type of assay: cell-based, human. Conditions: iMDK 100 nM, DDH group FSPC in vitro, compared with the DDH group. As for the experimental part:
as §1

In another assay the test system is DDH rat model. The experiment in a line: DDH rat model, iMDK injected into the hip joints (Micro CT, HE and safranin O-solid green staining, immunohistochemistry). The class given is in vivo, Wistar rats. The conditions noted are these: 5 mg/kg body weight into hip joints for 7 days. The procedure: In some embodiments, a DDH rat model is established to illustrate the results of the present disclosure. The manner of establishing the DDH rat model is as follows.
Fifteen neonatal rodents (e.g., Wistar rats, etc.) were divided into the control group, DDH group, and iMDK group. The DDH rat model was prepared by fixing the hind limbs of rats in the DDH group and the iMDK group using medical adhesive tape, etc., and keeping the hip joints internally retracted or post-extended for 10 days. […] Neonatal rats were fed by their mothers and had normal growth, development, and nutritional status. Rats in the DDH group and the iMDK group were de-taped for 30 min daily.
After 10 days, iMDK (e.g., HY-110171, etc.) was injected into the hip joints of rats in the iMDK group at a dosage of 5 mg/kg body weight for 7 days. Rats in the DDH group and control group were injected with equal volumes of saline.
It can be seen from FIG. 4 that compared with the control group, the acetabulum of the rats in the DDH group became shallow and the hip joints were dislocated.
In some embodiments, hip specimens were stained with HE (hematoxylin-eosin staining) and safranin O-solid green SO, and the results are shown in FIGS. 5A-5B. As shown in FIGS. 5A-5B, the acetabular labrum was thickened and the articular structure was disorganized in the DDH group. The iMDK group inhibited abnormal manifestations within the joint such as thickening of the acetabular labrum and joint structure disorders.

Setting [2] is: hip specimens, rank among DDH, DDH+iMDK and control groups.

For the compound `O=c1oc2ccccc2cc1-c1cn2cc(Cc3ccc(F)cc3)sc2n1` [iMDK], the cell proliferation capacity entry in the assay on primary FSPC is reported as “reduced”. In assay [1], the “expression level of MDK” value is “reduced” and the “expression level of NR3C1” value is given as “reduced”. In addition, the “abnormal manifestations within the joint such as thickening of the acetabular labrum and joint structure disorders (HE, safranin O-solid green staining)” value with DDH rat model (hip specimens) was “inhibited; also recorded: inhibits the thickening of the acetabular labrum”. In the assay on DDH rat model (setting [2]), the “expression level of Ki67 (immunohistochemistry)” value was “highest in the DDH group, followed by the DDH+iMDK group” and the “expression level of NR3C1 (immunohistochemistry)” value is on record as “highest in the DDH group, followed by the DDH+iMDK group”. In addition, the “hip dislocation (Micro CT)” value with DDH rat model (specimens 24 days after end of treatment) is on record as “significant improvement”.
